For data set [1] the following is noted: 293.15 K; 101.33 kPa; Liquid.
Data set [2] in a line: refractive index (Na D-line) (dimensionless). The conditions noted are these: 293.15 K; 101.33 kPa; Liquid; Standard Abbe refractometry.
Data set [3] in a line: Boiling temperature at pressure P. The following applies: Liquid, Distillation.

Numbers after ± are expanded uncertainties.

As usually defined, the mass density is mass per unit of volume. A word on the refractive index: it is a measure of how strongly the sample bends light. Consider `CCCC(=O)O` [butanoic acid], for which, in data set [1], the mass density amounted to 952.8 ± 0.58 kg/m3. For the same molecule, the refractive index in data set [2] came to 1.3975 ± 0.0007.
With `COC(=O)CCC(=O)OC` [dimethyl 1,4-butanedioate], the mass density in data set [1] is reported as 1119.13 ± 2.3 kg/m3. For the same molecule, in data set [3] (101.33 kPa), the “Boiling temperature at pressure P” value was 196.1 ± 0.2 °C. Further, the refractive index in data set [2] stood at 1.41969 ± 0.00078.
In the case of `COC(=O)CCCCC(=O)OC` [dimethyl 1,6-hexanedioate], in data set [1], the mass density amounted to 1061.72 ± 0.67 kg/m3. Besides, the “Boiling temperature at pressure P” value in data set [3] (1.733 kPa) came to 115 ± 1 °C. The refractive index in data set [2] turned out to be 1.42825 ± 0.0007.
Turning to `COC(=O)CCCC(=O)OC` [dimethyl pentanedioate], in data set [1], the mass density was 1087.67 ± 0.76 kg/m3. Besides, in data set [3] (101.33 kPa), the “Boiling temperature at pressure P” value came to 214.2 ± 0.2 °C. In addition, in data set [2], the refractive index was 1.42454 ± 0.0007.

These data come from the NIST ThermoML archive (doi:10.1016/j.jct.2006.07.002).
